# Columns and labels:
# Type in all cases: cell-based
# A375 melanoma cell line = assay: SRB analysis 3; details: Gemcitabine 5 μM, 48 hours
# Description: (§1) Through SRB analysis (n=3), the effect of triple combination treatment of a CAC inhibitor (KN510: omeprazole), ACAA inhibitor (KN713: trimetazidine) and other anticancer drug on cell growth in the cancer cells was analyzed. (see Table 11).
# (§2) The SRB assay was performed as follows: each cell line (100 μl) was seeded into 96-well microtiter plates at densities ranging from 5,000 to 40,000 cells/well depending on the doubling time of each cell line. After 24 hours, drug (100 μl per well) was added to each well and the culture was incubated at 37° C. for 48 hours. Cells were then fixed in 50% TCA (50 μl per well) and plates were incubated at 4° C. for a minimum of 1 hour or a maximum of 3 hours. After that, the liquid was removed from the plate, then rinsed 5 times with water and dried for approximately 12-24 hours at room temperature (RT). After the fixed cells were stained with 0.4% SRB (100 μl per well) for 10 minutes at room temperature, the plates were washed 3 times with 1% glacial acetic acid and dried at room temperature for about 12-24 hours. SRB staining was dissolved in 10 mM Trizma base and absorbance was read at 515 nm. The effect of the drug was expressed as GI50 (50% growth inhibition), TGI (total growth inhibition) or LC50 (lethal concentration). GI50 is the maximum concentration at the moment of 50% inhibition of cell proliferation and IC50 is the concentration of the drug that inhibits the enzyme activity in vitro by 50% in this study.
# [1] = tested on: A549 non-small cell lung cancer (NSCLC) cell line; assay: SRB analysis 3; details: Gemcitabine 2.5 μM, 48 hours
# Description: as §1, §2
# [2] = tested on: ACHN renal cancer cell line; assay: SRB analysis 3; details: Gemcitabine 2.5 μM, 48 hours
# Description: as §1, §2
# [3] = tested on: AGS gastric cancer cell line; assay: SRB analysis 3; details: Gemcitabine 2.5 μM, 48 hours
# Description: as §1, §2
# [4] = tested on: AsPC-1 pancreatic cancer (PDAC) cell line; assay: SRB analysis 3; details: Gemcitabine 2.5 μM, 48 hours
# Description: as §1, §2
# [5] = tested on: COLO-205 colon cancer cell line; assay: SRB analysis 3; details: Gemcitabine 2.5 μM, 48 hours
# Description: as §1, §2
# [6] = tested on: Caki-1 renal cancer cell line; assay: SRB analysis 3; details: Gemcitabine 2.5 μM, 48 hours
# Description: as §1, §2
# [7] = tested on: DU145 prostate cancer cell line; assay: SRB analysis 3; details: Gemcitabine 5 μM, 48 hours
# Description: as §1, §2
# [8] = tested on: H1975 non-small cell lung cancer (NSCLC) cell line; assay: SRB analysis 3; details: Gemcitabine 2.5 μM, 48 hours
# Description: as §1, §2
# [9] = tested on: HCT-116 colon cancer cell line; assay: SRB analysis 3; details: Gemcitabine 2.5 μM, 48 hours
# Description: as §1, §2
# [10] = tested on: Huh-7 liver cancer cell line; assay: SRB analysis 3; details: Gemcitabine 2.5 μM, 48 hours
# Description: as §1, §2
# [11] = tested on: MCF7 breast cancer cell line; assay: SRB analysis 3; details: Gemcitabine 2.5 μM, 48 hours
# Description: as §1, §2
# [12] = tested on: MDA-MB-231 breast cancer cell line; assay: SRB analysis 3; details: Gemcitabine 2.5 μM, 48 hours
# Description: as §1, §2
# [13] = tested on: MIA PaCa-2 pancreatic cancer (PDAC) cell line; assay: SRB analysis 3; details: Gemcitabine 2.5 μM, 48 hours
# Description: as §1, §2
# [14] = tested on: MKN45 gastric cancer cell line; assay: SRB analysis 3; details: MKN-45; Gemcitabine 2.5 μM; 48 hours
# Description: as §1, §2
# [15] = tested on: OVCAR-8 ovarian cancer cell line; assay: SRB analysis 3; details: Gemcitabine 2.5 μM, 48 hours
# Description: as §1, §2
# [16] = tested on: PC-3 prostate cancer cell line; assay: SRB analysis 3; details: Gemcitabine 5 μM, 48 hours
# Description: as §1, §2
# [17] = tested on: SK-OV-3 ovarian cancer cell line; assay: SRB analysis 3; details: Gemcitabine 2.5 μM, 48 hours
# Description: as §1, §2
# [18] = tested on: SK-hep-1 liver cancer cell line; assay: SRB analysis 3; details: Gemcitabine 2.5 μM, 48 hours
# Description: as §1, §2
# [19] = tested on: UACC62 melanoma cell line; assay: SRB analysis 3; details: Gemcitabine 5 μM, 48 hours
# Description: as §1, §2
# [20] = tested on: T87G glioblastoma (GBM) cell line; assay: SRB analysis 3; details: Gemcitabine 5 μM, 48 hours
# Description: as §2, with “Through SRB analysis (n=3), the effect of triple combination treatment of a CAC inhibitor ([…] inhibitor (KN713: trimetazidine) and other anticancer drug on cell growth in the cancer cells was analyzed. (see Table 11). The” for “The”, “nm.” for “nm. The effect of the drug was expressed as GI50 (50% growth inhibition), TGI (total growth inhibition) or LC50 (lethal concentration). GI50 is the maximum concentration at the moment of 50% inhibition of cell proliferation and IC50 is the concentration of the drug that inhibits the enzyme activity in vitro by 50% in this study.”
# [21] = tested on: U87MG glioblastoma (GBM) cell line; assay: SRB analysis 3; details: Gemcitabine 5 μM, 48 hours
# Description: as §2, with “Through SRB analysis (n=3), the effect of triple combination treatment of a CAC inhibitor ([…] inhibitor (KN713: trimetazidine) and other anticancer drug on cell growth in the cancer cells was analyzed. (see Table 11). The” for “The”, “nm.” for “nm. The effect of the drug was expressed as GI50 (50% growth inhibition), TGI (total growth inhibition) or LC50 (lethal concentration). GI50 is the maximum concentration at the moment of 50% inhibition of cell proliferation and IC50 is the concentration of the drug that inhibits the enzyme activity in vitro by 50% in this study.”
# cancer cells = assay: SRB analysis 3, triple combination, summary over cancer panels
# Description: as §1, §2
structure (smiles),measurement,setting,value
Nc1ccn([C@@H]2O[C@H](CO)[C@@H](O)C2(F)F)c(=O)n1 [Gemcitabine],cell growth (Control = 100),A375 melanoma cell line,25.12
same,cell growth (Control = 100),[1],19.65
same,cell growth (Control = 100),[2],−47.9775
same,cell growth (Control = 100),[3],15.95
same,cell growth (Control = 100),[4],20.83
same,cell growth (Control = 100),[5],6.029
same,cell growth (Control = 100),[6],28.94
same,cell growth (Control = 100),[7],45.33
same,cell growth (Control = 100),[8],16.14
same,cell growth (Control = 100),[9],3.788
same,cell growth (Control = 100),[10],33.13
same,cell growth (Control = 100),[11],12.31
same,cell growth (Control = 100),[12],65.05
same,cell growth (Control = 100),[13],25.9
same,cell growth (Control = 100),[14],36.14
same,cell growth (Control = 100),[15],21.24
same,cell growth (Control = 100),[16],48.0
same,cell growth (Control = 100),[17],24.21
same,cell growth (Control = 100),[18],22.18
same,cell growth (Control = 100),[19],31.60
same,cell growth (Control = 100),[20],53.69
same,cell growth (Control = 100),[21],3.67
same,"Positive/Negative (triple combination of KN510, KN713 and the listed anticancer drug)","cancer cells; Breast Cancer, BT-549, MDA MB 231",negative
same,"Positive/Negative (triple combination of KN510, KN713 and the listed anticancer drug)","cancer cells; Colon Cancer, HT-29, COLO-205",negative
same,"Positive/Negative (triple combination of KN510, KN713 and the listed anticancer drug)","cancer cells; GBM, U87MG, T87G",negative
same,"Positive/Negative (triple combination of KN510, KN713 and the listed anticancer drug)","cancer cells; Liver Cancer, SNU-449, Huh-7",negative
same,"Positive/Negative (triple combination of KN510, KN713 and the listed anticancer drug)","cancer cells; NSCLC, A549, H522",negative
same,"Positive/Negative (triple combination of KN510, KN713 and the listed anticancer drug)","cancer cells; Ovarian Cancer, SK-OV-3, OVCAR-3",negative
same,"Positive/Negative (triple combination of KN510, KN713 and the listed anticancer drug)","cancer cells; PDAC, MIA PaCa-2, PANC-1",Positive
same,"Positive/Negative (triple combination of KN510, KN713 and the listed anticancer drug)","cancer cells; Prostate Cancer, PC-3, DU-145",Positive
same,"Positive/Negative (triple combination of KN510, KN713 and the listed anticancer drug)","cancer cells; Renal cell carcinoma, ACHN, CAKI-1",negative
same,"Positive/Negative (triple combination of KN510, KN713 and the listed anticancer drug)","cancer cells; Stomach Cancer, MKN-28, AGS",negative
same,"Positive/Negative (triple combination of KN510, KN713 and the listed anticancer drug)","cancer cells; melanoma, UACC62, A375",Positive
